Experimental data from PMC7770263 (The Journal of International Medical Research, 2020).

What was measured:
[1] = Stability test of QC samples in rat plasma; format: in vitro ADME; conditions: for Extracted sample stability, Concentration / Extracted sample stability, Accuracy: extracted rat plasma samples; for Extracted sample stability, Accuracy / Long-term stability, Accuracy: relative error; for Short-term stability, Concentration / Long-term stability, Accuracy / stability values (short- and long-term stability): rat plasma; for Short-term stability, Concentration: room temperature for 24 hours; for Long-term stability, Accuracy: −20°C for 30 days; for stability values (short- and long-term stability): all QC concentrations, room temperature 24 hours and −20°C 30 days
[2] = Pharmacokinetic tests in rats; format: in vivo, Sprague–Dawley rats; conditions: for absorption in vivo (in words) / elimination rate (in words): intravenous injection of the compound preparation
[3] = nominal concentration 2400 ng/mL
[4] = nominal concentration 8000 ng/mL
[5] = rat plasma, intravenous injection of ticarcillin disodium and clavulanate, 144 mg/kg
[6] = rat plasma, intravenous injection, 144 mg/kg, mean ± standard deviation
[7] = rat, intravenous injection, 144 mg/kg, mean ± standard deviation
[8] = nominal concentration 300 ng/mL
[9] = male, Sprague-Dawley, rat, plasma, iv, 144 mg/kg

Which results are given for `CC1(C)S[C@@H]2[C@H](NC(=O)[C@H](C(=O)O)c3ccsc3)C(=O)N2[C@H]1C(=O)O` [Ticarcillin R]?
Extracted sample stability, Concentration ([1]; nominal concentration 30 ng/mL): 28.6 ± 0.8 ng/mL; Extracted sample stability, Accuracy ([1]; nominal concentration 30 ng/mL): −4.7%; Extracted sample stability, Concentration [1, 3]: 2427 ± 16 ng/mL; Extracted sample stability, Accuracy [1, 3]: 1.1%; Extracted sample stability, Concentration [1, 4]: 8291 ± 91 ng/mL; Extracted sample stability, Accuracy [1, 4]: 3.6%; Short-term stability, Concentration ([1]; nominal concentration 30 ng/mL): 30.4 ± 0.6 ng/mL; Short-term stability, Concentration [1, 3]: 2349 ± 15 ng/mL; Short-term stability, Concentration [1, 4]: 7918 ± 107 ng/mL; Long-term stability, Accuracy ([1]; nominal concentration 30 ng/mL): −4.3%; Long-term stability, Accuracy [1, 3]: −0.5%; Long-term stability, Accuracy [1, 4]: 0.8%; tmax [2, 5]: 4.98 min; AUC0-t [2, 6]: 3,654,298 ± 430,890 ng·h/mL; AUC0-∞ [2, 6]: 3,654,643 ± 431,153 ng·h/mL; absorption in vivo (in words) ([2]; rat): rapidly absorbed in vivo; elimination rate (in words) ([2]; rat): slower; CL(/F) (clearance) [2, 7]: 0.733 ± 0.17 mL/min/kg; Vss obs (observed volume of distribution at steady state) [2, 7]: 0.02 ± 0.00 L/kg

With `CC1(C)S[C@@H]2[C@H](NC(=O)[C@@H](C(=O)O)c3ccsc3)C(=O)N2[C@H]1C(=O)O` [Ticarcillin S] as the molecule, how does the “Extracted sample stability, Concentration” value ([1]; nominal concentration 30 ng/mL) read?
The value was 30.8 ± 1.3 ng/mL.

What about the “Extracted sample stability, Accuracy” value ([1]; nominal concentration 30 ng/mL) of the same molecule?
The value was 2.7%.

What about the “Extracted sample stability, Concentration” value [1, 3] of the same molecule?
Its value is 2,465 ± 12 ng/mL.

And the “Extracted sample stability, Accuracy” value [1, 3]?
The value was 2.7%.

And the “Extracted sample stability, Concentration” value [1, 4]?
The value was 7985 ± 93 ng/mL.

What about the “Extracted sample stability, Accuracy” value [1, 4] of the same molecule?
Its value is −0.2%.

And the “Short-term stability, Concentration” value ([1]; nominal concentration 30 ng/mL)?
The value was 28.8 ± 0.9 ng/mL.

What about the “Short-term stability, Concentration” value [1, 3] of the same molecule?
Its value is 2457 ± 19 ng/mL.

What about the “Short-term stability, Concentration” value [1, 4] of the same molecule?
Its value is 7931 ± 113 ng/mL.

What about the “Long-term stability, Accuracy” value ([1]; nominal concentration 30 ng/mL) of the same molecule?
Its value is −2.3%.

What about the “Long-term stability, Accuracy” value [1, 3] of the same molecule?
The value was 1.3%.

And the “Long-term stability, Accuracy” value [1, 4]?
Its value is −0.6%.

And the tmax [2, 5]?
Its tmax is 4.98 min.

And the AUC0-t [2, 6]?
The AUC0-t was 3270 ± 262 ng·h/mL.

And the “AUC0-∞” value [2, 6]?
The value was 3274 ± 264 ng·h/mL.

What about the “absorption in vivo (in words)” value ([2]; rat) of the same molecule?
Its value is “rapidly absorbed in vivo”.

And the “CL(/F) (clearance)” value [2, 7]?
Its value is 827.8 ± 63.2 mL/min/kg.

What about the “Vss obs (observed volume of distribution at steady state)” value [2, 7] of the same molecule?
The value was 12.2 ± 0.68 L/kg.

For `O=C(O)[C@H]1/C(=C/CO)O[C@@H]2CC(=O)N21` [Clavulanate], which “Extracted sample stability, Accuracy” value ([1]; nominal concentration 80 ng/mL) is on record?
Its value is −2.8%.

And the “Extracted sample stability, Concentration” value [1, 8]?
Its value is 295 ± 17 ng/mL.

And the “Extracted sample stability, Accuracy” value [1, 8]?
Its value is −1.7%.

And the “Extracted sample stability, Concentration” value [1, 3]?
The value was 2344 ± 98 ng/mL.

What about the “Extracted sample stability, Accuracy” value [1, 3] of the same molecule?
Its value is −2.3%.

What about the “stability values (short- and long-term stability)” value [1] of the same molecule?
The value was −4.3% to 3.2.

And the “Short-term stability, Concentration” value ([1]; nominal concentration 80 ng/mL)?
Its value is 81.4 ± 0.6 ng/mL.

What about the “Short-term stability, Concentration” value [1, 8] of the same molecule?
The value was 305 ± 11 ng/mL.

What about the “Short-term stability, Concentration” value [1, 3] of the same molecule?
The value was 2389 ± 118 ng/mL.

What about the “Long-term stability, Accuracy” value ([1]; nominal concentration 80 ng/mL) of the same molecule?
Its value is 3.2%.

And the “Long-term stability, Accuracy” value [1, 8]?
The value was −3.7%.

And the “Long-term stability, Accuracy” value [1, 3]?
The value was −1.1%.

What about the AUC0-t [2, 9] of the same molecule?
The AUC0-t was 541 ± 254 ng·h/mL.

And the AUC(0-inf) [2, 9]?
The AUC(0-inf) was 559 ± 251 ng·h/mL.

And the Cmax [2, 9]?
Its Cmax is 1660 ± 667 ng/mL.

What about the half-life [2, 9] of the same molecule?
The half-life was 10.2 ± 2.4 min.

And the tmax [2, 9]?
The tmax was 4.98 min.

What about the “absorption in vivo (in words)” value ([2]; rat) of the same molecule?
Its value is “rapidly absorbed in vivo”.

And the “elimination rate (in words)” value ([2]; rat)?
Its value is “shortest t1/2 and most rapid elimination”.

And the “CL(/F) (clearance)” value [2, 7]?
The value was 5780 ± 3400 mL/min/kg.

Which “stability values (short- and long-term stability)” value [1] does the source give for `CC1(C)S[C@@H]2[C@H](NC(=O)[C@H](C(=O)O)c3ccsc3)C(=O)N2[C@H]1C(=O)O` [ticarcillin] here?
Its value is −4.3% to 3.2.
